From patent US7709454B2, “Methods and compositions for inhibiting tumorigenesis” (New York University, priority 1997, dated 2010)

Experiments:
[1] = tested on: HRAS^V12G or NRAS^Q61K transfected WM-115 and SK-Mel2 cells; test: oncogenic RAS-transfection enhanced BrdU incorporation (Example 2); format: cell-based, human
Experimental: Forskolin (FK) and 1,9-dideoxyforskolin (ddFK; Sigma) were used at 50 μM. MEK-1 (U0126; Promega), and AKT (SH6; Alexis corporation) inhibitors were used at 1 and 40 μM, respectively, dissolved in DMSO. U0126 and SH6 were used for 1 h, 48 h post-transfection. Leptomycin B (LMB; Sigma) was used at 5 nM for 6 h, 48 h post-transfection. BrdU (Sigma) was pulsed at 4 μg/ml for 2 h before fixation followed by immunodetection with anti-BrdU antibodies (BD Biosciences). The number of viable cells was assessed by Trypan blue exclusion (Promega). […] (SEQ ID NO: 57) (target-validated from Ambion). […] SEQ ID NO: 58) (Sanchez, P. et al. Inhibition of prostate cancer proliferation by interference with SONIC HEDGEHOG-GLI1 signaling. Proc. Natl. Acad. Sci. USA. 101, 12561-12566 (2004)). siRNA transfections (0.2 μM) were performed with Oligofectamine (Invitrogen) for 48 h.
Cells were transfected (3 μg/p35 plate) with myc-tagged full-length CMV expression vectors with FUGENE (Roche). Transfections were at equimolar amounts unless otherwise specified with combinations of pCS2-Myc-tagged human GLI1, GLI3, GLI3R (GLI3C′ΔClaI), frog Gli2R (Gli2C′) (Ruiz i Altaba, A. Gli proteins encode context-dependent positive and negative functions: implications for development and disease. Development 126, 3205-3216 (1999), pCMV-HA-tagged GLI1 (ref. 20), HRAS^V12G (from A. Pellicer), NRAS^Q61K (Ackermann, J. et al. Metastasizing melanoma formation caused by expression of activated N-RasQ61K on an INK4a-deficient background. Cancer Res. 65, 4005-4011 (2005)), activated (myristoylated) myc-tagged AKT1 (Upstate), activated MEK1 (p45MAPKK^S222D; from J. Pouyssegur), Myc-tagged SUFUH (Kogerman, P. et al. Mammalian suppressor-of-fused modulates nuclear-cytoplasmic shuttling of Gli-1. Nat Cell Biol. 1, 312-319 (1999)), and pCMV-eGFP or pCMV-lacZ.

[2] = tested on: GLI1 transcriptional activity; test: GLI luciferase reporter assay (7 GLI binding site reporter) in COS7 cells; format: cell-based, monkey
[3] = tested on: ras-transformed rat kidney cell; conditions: cited from earlier work
human cancer cells = conditions: cited from earlier work
Nude mice/HIG3T3 = conditions: nude mice transplanted with activated H-Ras-transformed HIG3T3 cells; cited from earlier work
[4] = tested on: Nude Harlan Sprague-Dawley Mice/lung (A-549, Calu-1) tumors; conditions: 70 mg/kg/d; cited from earlier work
[5] = tested on: EJ-1 human bladder carcinoma; conditions: in vivo; cited from earlier work
[6] = tested on: GLI1-transfected WM-115, SK-MEL-2 and SK-MEL-5; test: GLI1-transfection enhanced BrdU incorporation, treatment with inhibitors; format: cell-based, human; conditions: 48 h treatment
Experimental: (§1) Commercial N-SHH (R&D Systems) was used at 100 nM. 5E1 anti-SHH blocking antibody (Hybridoma Bank, University of Iowa) was used at 10 μg/ml. Forskolin (FK) and 1,9-dideoxyforskolin (ddFK; Sigma) were used at 50 μM. […] MEK-1 (U0126; Promega), EGFR (AG1478; Biosource) and AKT (SH6; Alexis corporation) inhibitors were used at 1, 10, and 40 μM, respectively, dissolved in DMSO. Drug treatments were for 48 h in 2.5% serum. BrdU (Sigma) was pulsed at 4 μg/ml for 2 h before fixation followed by immunodetection with anti-BrdU antibodies (BD Biosciences). The number of viable cells was assessed by Trypan blue exclusion (Promega).

[7] = tested on: human melanoma primary cultures and cell lines; test: BrdU incorporation in melanoma primary cultures and cell lines; format: cell-based
Experimental: (§2) Human foreskin melanocytes (Promocell) were grown in serum-free M2 medium (Promocell). WM-115, SK-MEL-2, SK-MEL-5, MeWo and COS7 cell lines (ATCC) were grown as specified. Tumors were chopped, incubated in E-MEM (Sigma) containing collagenase A (300 U/ml, Worthington) and hyaluronidase (100 U/ml, Sigma), mechanically dissociated and plated in E-MEM with 10% FBS, 1 mM sodium pyruvate (GIBCO) and 1 ng/ml EGF (GIBCO). […] All melanoma samples and BCC were obtained following approved protocols.
as §1

[8] = tested on: primary cultures Me-1 to Me-5 (melanoma metastases); test: BrdU incorporation in melanoma primary cultures; format: cell-based, human; conditions: exogenous recombinant SHH ligand, 48 h; fraction of five primary cultures
Experimental: as §2, §1

[9] = tested on: Proliferating melanocytes from human foreskin; test: BrdU incorporation in proliferating melanocytes; format: cell-based
Experimental: as §2, §1

[10] = tested on: WM115, SK-MEL-2, SK-MEL-5 and MeWo cell lines; test: BrdU incorporation in melanoma cell lines; format: cell-based, human
Experimental: as §2, §1

[11] = tested on: GLI1, HIP and MITFM expression; test: qPCR gene expression in proliferating melanocytes after SHH; format: cell-based, human; conditions: SHH treatment, 8 h, qPCR normalized to GAPDH
Experimental: (§3) Real-time quantitative PCR amplifications with different primers (Suppl. Materials) were carried out at 60° C. on an Opticon machine (MJ Research) using iQ™ SYBR Green supermix (Biorad) and values calculated using the standard curve method.

p-ERK, p-AKT = test: levels of p-ERK or p-AKT in melanoma cells; format: cell-based, human; conditions: cyclopamine treatment
Mewo cells = test: BrdU incorporation, AKT inhibitor plus cyclopamine; format: cell-based, human; conditions: 5 μM cyclopamine plus 20 μM SH6, 48 hours
Experimental: (§4) Cell proliferation was assessed after incubation with BrdU as described.

[12] = tested on: WM-115 subcutaneous tumors; test: subcutaneous WM-115 melanoma xenografts in nude mice; format: in vivo, mouse; conditions: n=2 treated vs n=2 carrier
Experimental: (§5) 5×10^5 MeWo/LacZ, WM-115 or 10^6 primary Me-3 melanoma cells were inoculated subcutaneously (s.c.) at two sides per adult male (NMRI-nu) nude mouse and the tumors were measured daily. […] For metastasis studies, 1×10^6 Mewo/LacZ cells were injected into the tail vein (i.v.) of adult male nude mice. […] At the end of the treatment the lungs were dissected and stained with XGal.

MeWo/LacZ melanomas = test: subcutaneous MeWo/LacZ melanoma xenografts in nude mice; format: in vivo, mouse
Experimental: as §5

[13] = tested on: GLI1, PTCH1, BMI1, FOXM1, MITFM expression; test: qPCR gene expression in melanoma cultures; format: cell-based, human
Experimental: as §3, §1

[14] = tested on: NRAS^Q61K mouse melanoma primary cultures; test: BrdU incorporation in primary cultures of Tyr-NRAS^Q61K; Ink4a−/− mouse melanomas; format: cell-based; conditions: 10 μM
Experimental: WM-115, SK-MEL-2 and COS7 cell lines (ATCC) were grown according to the specifications of the provider. The primary Me-3 melanoma (Stecca, B. et al. Melanocyte proliferation and melanoma growth, recurrence and metastasis require sustained SONIC HEDGEHOG-GLI signaling. Submitted. (2006)) was grown in E-MEM with 10% FBS (Hyclone), 1 mM sodium pyruvate (GIBCO) and 1 ng/ml EGF (GIBCO). Proliferating human melanocytes from foreskin (Promocell) were grown in M2 media (Promocell). Melanomas from ±6 month-old Tyr→NRAS^Q61K; Ink4a^−/− mice on a light coat color Dct^−/− background^13 were collected from the skin and lymph nodes. Tumors were dissociated and grown in E-MEM with 10% FBS, 1 mM sodium pyruvate (GIBCO) and 1 ng/ml EGF (GIBCO). Mouse embryonic fibroblasts (MEFs) were prepared from E14.5 Swiss Webster mouse embryos and grown in DMEM with 10% FBS.
Forskolin (FK) and 1,9-dideoxyforskolin (ddFK; Sigma) were used at 50 μM. MEK-1 (U0126; Promega), and AKT (SH6; Alexis corporation) inhibitors were used at 1 and 40 μM, respectively, dissolved in DMSO. U0126 and SH6 were used for 1 h, 48 h post-transfection. Leptomycin B (LMB; Sigma) was used at 5 nM for 6 h, 48 h post-transfection. BrdU (Sigma) was pulsed at 4 μg/ml for 2 h before fixation followed by immunodetection with anti-BrdU antibodies (BD Biosciences). The number of viable cells was assessed by Trypan blue exclusion (Promega). […]

WM-115, Me-3 and MeWo = test: long-term cyclopamine treatment and recovery of cultures; format: cell-based, human; conditions: ten days, drug-containing media anew every 2 days
WM115 cells = test: BrdU incorporation, MEK inhibitor plus cyclopamine; format: cell-based, human; conditions: 5 μM cyclopamine plus 1 μM U0126, 48 hours
Experimental: as §4

Compound: C=C[C@@]1(C)CC(=O)[C@]2(O)[C@@]3(C)[C@@H](O)CCC(C)(C)[C@@H]3[C@H](O)[C@H](OC(C)=O)[C@@]2(C)O1 [Forskolin]
- inhibition of oncogenic RAS-induced proliferation ([1]; SK-Mel2): 100%
- inhibition of oncogenic RAS-induced proliferation ([1]; WM-115): ~80%

Compound: CCC(=C/[C@H](C)C/C=C/C(C)=C/[C@@H](C)C(=O)[C@@H](C)[C@H](O)[C@@H](C)C/C(C)=C/C(=O)O)/C=C/[C@@H]1OC(=O)C=C[C@@H]1C [LMB]
- increase of GLI1-induced luciferase activity ([2]; GLI1 alone, 4 h treatment with LMB): ~3 fold
- further increase in GLI activity ([2]; cells coexpressing GLI1 and NRAS^Q61K, LMB treatment): ~3 fold

Compound: Cc1ccc(S(=O)(=O)N[C@@H](Cc2ccccc2)C(=O)CCl)cc1 [TPCK]
- cell growth [3]: potently inhibit
- anchorage-independent clonogenic growth (human cancer cells): almost completely block

Compound: C[C@H]([C@H](C/C=C/c1nc2ccccc2o1)c1ccc2c(c1)OCO2)N(Cc1ccc2ccccc2c1)C(=O)[C@H]1OC(C(=O)O)(C(=O)O)O[C@H]1C(=O)O [J-104871]
- tumor growth (Nude mice/HIG3T3): suppressed tumor growth

Compound: CC(C)C[C@H](NC(=O)c1ccc(NC[C@@H](N)CS)cc1-c1cccc2ccccc12)C(=O)O [GGTI-297]
- GROWTH INHIBITION [4]: 56%-70%

Compound: COC(=O)[C@H](CCSC)NC(=O)[C@H](/C=C\[C@@H](/C=C/[C@@H](N)CS)C(C)C)Cc1ccccc1 [B1086]
- tumor growth [5]: inhibit tumor growth

Compound: COc1cc2ncnc(Nc3cccc(Cl)c3)c2cc1OC [AG1428]
- effect on GLI1-enhanced proliferation [6]: reversed
- BrdU incorporation ([7]; 48 h, all four melanoma cell lines tested and Me-3): decreased BrdU incorporation

Compound: SHH: Commercial N-SHH (R&D Systems), recombinant SHH ligand
- primary cultures with increased BrdU incorporation above a basal level (10%) [8]: ⅘
- increase in proliferation ([9]; recombinant SHH ligand, 48 h, over PBS): ⅓
- cell lines with increased BrdU incorporation above a basal level (10%) ([10]; exogenous recombinant SHH ligand, 48 h, fraction of four cell lines): ¾
- induction of GLI1 expression [11]: 2-3 fold
- induction of HIP expression [11]: 2-3 fold
- induction of MITFM expression [11]: 6 fold

Compound: CC1=C2C[C@H]3[C@@H](CC=C4C[C@@H](O)CC[C@@]43C)[C@@H]2CC[C@]12O[C@@H]1C[C@H](C)CN[C@H]1[C@H]2C [cyclopamine]
- levels of p-ERK or p-AKT (p-ERK, p-AKT): did not alter
- effect on BrdU incorporation of suboptimal cyclopamine combined with SH6 (Mewo cells): significantly effective
- tumor response to cyclopamine treatment [12]: lead to their disappearance
- recurrence after sustained treatment (MeWo/LacZ melanomas; 20 d treatment after tumor disappearance, 42 additional days): no recurrences
- tumor response to injection into the tumor (MeWo/LacZ melanomas; cyclodextrin-complexed cyclopamine injected into the tumor, tumors ±10 mm^3 or ±65 mm^3, vs cyclodextrin alone): rapid regression and disappearance of the tumors
- cured tumors containing small pockets of β-gal+ tumor cells or groups of single cells (MeWo/LacZ melanomas; five cured tumors taken 1-2 days after macroscopic disappearance): ⅘
- time to tumor reappearance (MeWo/LacZ melanomas; from the end of 3 d and 10 d additional treatment after tumor disappearance): 2 to 7 days
- decrease in tumor volume (MeWo/LacZ melanomas; systemic treatment of large subcutaneous tumors (±65 mm^3), 16 days, vs carrier-only): 33%
- GLI1 expression ([13]; 24-48 h cyclopamine treatment): decreased GLI1 expression
- PTCH1 expression ([13]; cyclopamine 8 h, 3 primary cultures tested): inhibited PTCH1 expression
- Expression of BMI1, FOXM1 and MITFM ([13]; cyclopamine 8 h, primary cultures): repressed
- number of doubly BrdU+/GFP+ cells ([14]; two primary cultures (1-PM2, 1-LNM5), GFP plus control plasmid): decreased the number of doubly BrdU+/GFP+ cells
- induction of the senescence marker SA-β-gal ([9]; cyclopamine treatment): did not induce
- inhibition of oncogenic RAS-enhanced BrdU incorporation ([1]; WM-115 and SK-Mel2): 65-75%
- sensitivity of tumor-derived MeWo/lacZ cells to cyclopamine in vitro versus parental cells ([10]; cells from systemically treated tumors): same sensitivity
- BrdU incorporation after long-term treatment (WM-115, Me-3 and MeWo): inhibit all BrdU incorporation
- effect on BrdU incorporation of suboptimal cyclopamine combined with U0126 (WM115 cells): significantly effective
- response of BrdU incorporation to cyclopamine ([7]; 24-48 h, dose-dependent, compared with tomatidine): all responded

Compound: C[C@H]1CC[C@]2(NC1)O[C@H]1C[C@H]3[C@@H]4CC[C@H]5C[C@@H](O)CC[C@]5(C)[C@H]4CC[C@]3(C)[C@H]1[C@@H]2C [tomatidine]
- proliferation of all 12 primary cultures ([14]; 48 h): no effect
